Measurements as given in publication PMC7026480, “Discovery of Multitarget-Directed Ligands Against Influenza A Virus From Compound Yizhihao Through a Predictive System for Compound-Protein Interactions” (Frontiers in Cellular and Infection Microbiology, 2020).
Read-outs that look alike come from different tables or passages of the source.

Columns and labels:
[1] = molecular target: neuraminidase (NA) of A/PR/8/34 (H1N1) (Influenza A virus, UniProt P03468); assay: biochemical
[2] = system: TNF-α; assay type: cell-based, human; as to TNF-α expression in cell culture supernatant in comparison with the model group: test concentration or dose not given here
[3] = system: A/Puerto Rico/8/34 (wild-type H1N1); assay: microbe, parasite or virus in culture; assay type: cell-based; conditions: Influenza A virus
[4] = system: A/Minfang/151/2000 (wild-type H3N2); assay: microbe, parasite or virus in culture; assay type: cell-based; conditions: Influenza A virus, H3N2, MDCK
[5] = H1N1 / PR/8, MDCK, read-out: IC50, CPE reduction, A/PR/8/34 (H1N1), Drug administration after virus inoculation
[6] = H1N1 / PR/8, MDCK, read-out: IC50, CPE reduction, A/PR/8/34 (H1N1), Pre-incubation of virus and drug
[7] = H1N1 / PR/8, MDCK, read-out: IC50, CPE reduction, A/PR/8/34 (H1N1), Simultaneous action of virus and drug
[8] = H1N1 / PR/8, MDCK, read-out: IC50, CPE reduction, A/PR/8/34 (H1N1), Virus inoculation after drug administration
[9] = read-out: IC50, CPE reduction, A/Minfang/151/2000 (H3N2), Drug administration after virus inoculation
[10] = read-out: IC50, CPE reduction, A/Minfang/151/2000 (H3N2), Pre-incubation of virus and drug
[11] = read-out: IC50, CPE reduction, A/Minfang/151/2000 (H3N2), Simultaneous action of virus and drug
[12] = read-out: IC50, CPE reduction, A/Minfang/151/2000 (H3N2), Virus inoculation after drug administration
[13] = IC50, NA inhibition test, A/PR/8/34 (H1N1)
[14] = H1N1, MDCK, read-out: IC50, CPE reduction, H1N1 wild-type, in the four modes of action tested
[15] = read-out: IC50, CPE reduction, H3N2 wild-type, in the four modes of action tested

Chain of neuraminidase (NA) of A/PR/8/34 (H1N1) (P03468 whole entry, looked up): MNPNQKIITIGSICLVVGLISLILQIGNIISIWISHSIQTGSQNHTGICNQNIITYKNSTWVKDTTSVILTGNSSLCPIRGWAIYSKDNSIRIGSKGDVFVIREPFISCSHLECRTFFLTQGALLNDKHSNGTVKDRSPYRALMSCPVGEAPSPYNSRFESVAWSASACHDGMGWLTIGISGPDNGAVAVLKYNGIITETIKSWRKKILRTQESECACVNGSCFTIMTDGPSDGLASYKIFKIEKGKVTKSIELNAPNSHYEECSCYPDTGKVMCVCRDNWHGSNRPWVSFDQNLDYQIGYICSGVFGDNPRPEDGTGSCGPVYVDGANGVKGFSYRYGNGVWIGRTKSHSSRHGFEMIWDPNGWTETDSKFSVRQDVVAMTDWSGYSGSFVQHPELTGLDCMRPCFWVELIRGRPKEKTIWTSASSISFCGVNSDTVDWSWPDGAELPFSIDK

Compound | TNF-α expression in cell culture supernatant in comparison with the model group [2] | IC50 [3, 5] [µM] | IC50 [3, 6] [µM] | IC50 [3, 7] [µM] | IC50 [3, 8] [µM] | IC50 [4, 9] [µM] | IC50 [4, 10] [µM] | IC50 [4, 11] [µM] | IC50 [4, 12] [µM] | further results
C=C(C(=O)O)[C@H]1CC[C@H](C)[C@@H]2CC(=O)C(C)=C2C1 (stereo in doubt) [Rupestonic acid] | significantly less TNF-α | – | – | – | – | – | – | – | – | IC50 ([1]; read-out: IC50, NA inhibition test, A/PR/8/34 (H1N1)): > 100 µM
C=CCC(=NOS(=O)(=O)O)S[C@@H]1O[C@H](CO)[C@@H](O)[C@H](O)[C@H]1O (stereo in doubt) [sinigrin] | significantly less TNF-α | – | – | – | – | – | – | – | – | –
COc1ccc(-c2cc(=O)c3c(O)cc(O)cc3o2)cc1 [Acacetin] | – | 62 ± 5.91 | 77.4 ± 25.7 | > 100 | > 100 | > 100 | 12.5 ± 5.46 | 20.5 ± 0.86 | 72.5 ± 11.7 | –
O=c1cc(-c2ccc(O)cc2)oc2cc(O)cc(O)c12 [Apigenin] | – | > 100 | 16.7 ± 1.77 | 9.06 ± 0.41 | > 100 | > 100 | 9.28 ± 2.03 | 15.8 ± 1 | > 100 | –
O=C(/C=C/c1ccc(O)c(O)c1)O[C@@H]1C[C@](O)(C(=O)O)C[C@@H](O)[C@H]1O [Chlorogenic acid] | significantly less TNF-α | – | – | – | – | – | – | – | – | IC50 [1, 13]: 64.6 ± 6.97 µM
Cc1cc(O)c2c(c1)C(=O)c1cc(O)cc(O)c1C2=O [Emodin] | – | > 100 | 55.9 ± 9.8 | 6.53 ± 0.29 | > 100 | > 100 | 18.2 ± 1.02 | 55.9 ± 6 | > 100 | –
C=C[C@@H]1CNC(=S)O1 [Epigoitrin] | significantly less TNF-α | – | – | – | – | – | – | – | – | IC50 [1]: > 100 µM
O=C1Nc2ccccc2/C1=C1/Nc2ccccc2C1=O [Indirubin] | – | > 100 | > 100 | > 100 | > 100 | > 100 | > 100 | > 100 | 52.6 ± 27.4 | –
O=c1cc(-c2ccc(O)c(O)c2)oc2cc(O)cc(O)c12 [Luteolin] | significantly less TNF-α | > 100 | 4.53 ± 0.92 | 7.08 ± 0.3 | > 100 | > 100 | 44.7 ± 20 | > 100 | > 100 | effect on TNF-α compared with positive drugs [2]: greater effect on TNF-α than positive drugs
O=c1cc(-c2ccc(O)c(O)c2)oc2c([C@@H]3O[C@H](CO)[C@@H](O)[C@H](O)[C@H]3O)c(O)cc(O)c12 [Orientin] | significantly less TNF-α | – | – | – | – | – | – | – | – | IC50 [1, 13]: 53.7 ± 9.98 µM
CCOC(=O)C1=C[C@@H](OC(CC)CC)[C@H](NC(C)=O)[C@@H](N)C1 [Oseltamivir, oseltamivir phosphate, reference compound] | – | 83.4 ± 15.6 | 74.9 ± 20.7 | 4.45 ± 0.24 | 11.4 ± 7.44 | 77.9 ± 22.1 | 6.25 ± 2.6 | 8.47 ± 1.73 | 54.5 ± 14.2 | IC50 [3, 14]: < 100 µM; IC50 [4, 15]: < 100 µM
O=c1c(O)c(-c2ccc(O)c(O)c2)oc2cc(O)cc(O)c12 [Quercetin] | – | > 100 | 8.59 ± 1.34 | 5.41 ± 0.14 | > 100 | > 100 | 9.99 ± 2.84 | 18.3 ± 3.52 | > 100 | –
NC(=O)c1ncn([C@@H]2O[C@H](CO)[C@@H](O)[C@H]2O)n1 [Ribavirin, ribavirin, reference compound] | – | 16.1 ± 1.47 | 10.4 ± 2.19 | 16.4 ± 2.95 | 47.5 ± 7.94 | 22.5 ± 6.16 | 9.18 ± 0.99 | 21.7 ± 0.97 | 62.5 ± 16.2 | IC50 [3, 14]: < 100 µM; IC50 [4, 15]: < 100 µM
O=C1c2ccccc2-n2c1nc1ccccc1c2=O [Tryptanthrin] | except tryptanthrin, were associated with significantly less TNF-α | > 100 | 72 ± 23.6 | > 100 | > 100 | > 100 | 17.7 ± 1.74 | 31.8 ± 11.6 | 76.3 ± 3.4 | –
O=C(/C=C/c1ccc(O)cc1)c1ccc(O)cc1O [isoliquiritigenin] | significantly less TNF-α | – | – | – | – | – | – | – | – | effect on TNF-α compared with positive drugs [2]: greater effect on TNF-α than positive drugs
COc1ccc(-c2cc(=O)c3c(O)cc(O[C@@H]4O[C@H](CO[C@@H]5O[C@@H](C)[C@H](O)[C@@H](O)[C@H]5O)[C@@H](O)[C@H](O)[C@H]4O)cc3o2)cc1 [linarin] | significantly less TNF-α | – | – | – | – | – | – | – | – | –
COc1ccc(-c2cc(=O)c3c(OC)c(OC)c(OC)cc3o2)cc1OC [sinensetin] | significantly less TNF-α | – | – | – | – | – | – | – | – | –
cedar acid | significantly less TNF-α | – | – | – | – | – | – | – | – | –
